For data set [1], the target named is T1, 5-hydroxytryptamine receptor 7 (Homo sapiens, UniProt P34969). Nature of the data set: Binding affinity to 5-HT7 receptor (unknown origin) assessed as inhibition constant.
Data set [2] deals with Sigma intracellular receptor 2 (Homo sapiens, UniProt Q5BJF2). In words: Binding affinity to sigma 2 receptor (unknown origin) assessed as inhibition constant.
Data set [3] addresses Sigma non-opioid intracellular receptor 1 (Homo sapiens, UniProt Q99720). Nature of the data set: Binding affinity to sigma 1 receptor (unknown origin) assessed as inhibition constant.
Data set [4] has as its target T2, 5-hydroxytryptamine receptor 2B (Homo sapiens, UniProt P41595). In words: Displacement of [3H]-mesulergine from 5-HT2B (unknown origin) assessed as inhibition constant by radioligand competitive binding assay. (Displacement assays read how much labelled ligand stays bound in the presence of the test substance.)
Data set [5] is described as follows: In vivo binding affinity of Papio anubis baboon 5-HT2C assessed as inhibition constant measured after 1 to 21 mins postinjection. The format is functional, organism-based.
In data set [6] the target is T3, 5-hydroxytryptamine receptor 1A (Homo sapiens, UniProt P08908).
T3 sequence (P08908 whole entry): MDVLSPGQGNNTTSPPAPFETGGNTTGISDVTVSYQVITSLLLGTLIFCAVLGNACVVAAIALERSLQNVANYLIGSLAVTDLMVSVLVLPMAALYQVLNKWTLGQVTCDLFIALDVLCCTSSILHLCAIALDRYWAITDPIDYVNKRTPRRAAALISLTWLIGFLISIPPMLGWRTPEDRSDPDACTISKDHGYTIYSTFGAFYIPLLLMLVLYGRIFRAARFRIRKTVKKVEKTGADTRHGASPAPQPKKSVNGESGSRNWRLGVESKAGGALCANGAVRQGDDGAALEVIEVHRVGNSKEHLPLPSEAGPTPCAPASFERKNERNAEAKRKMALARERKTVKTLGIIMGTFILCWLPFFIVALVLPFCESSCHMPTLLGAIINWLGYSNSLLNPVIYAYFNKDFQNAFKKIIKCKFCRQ
In words: Displacement of [3H]-mesulergine from 5-HT1A (unknown origin) assessed as inhibition constant by radioligand competitive binding assay.

In data set [7] the target is T4, 5-hydroxytryptamine receptor 2C (Homo sapiens, UniProt P28335).
T4 sequence (P28335 whole entry): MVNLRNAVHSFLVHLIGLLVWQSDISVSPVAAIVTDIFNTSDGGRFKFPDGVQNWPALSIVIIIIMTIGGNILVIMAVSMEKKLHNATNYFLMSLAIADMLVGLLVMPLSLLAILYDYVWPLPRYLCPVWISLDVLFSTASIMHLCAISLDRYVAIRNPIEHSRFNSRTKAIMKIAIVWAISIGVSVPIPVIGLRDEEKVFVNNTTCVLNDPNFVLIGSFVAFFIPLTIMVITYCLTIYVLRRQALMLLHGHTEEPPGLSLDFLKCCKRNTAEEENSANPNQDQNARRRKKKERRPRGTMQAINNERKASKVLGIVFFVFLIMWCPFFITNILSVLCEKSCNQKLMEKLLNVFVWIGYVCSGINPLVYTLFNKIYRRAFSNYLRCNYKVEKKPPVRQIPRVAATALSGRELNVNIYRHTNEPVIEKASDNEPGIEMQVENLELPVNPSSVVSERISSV
In words: Displacement of [3H]-mesulergine from 5-HT2C (unknown origin) assessed as inhibition constant by radioligand competitive binding assay.

The nature of data set [8]: Drug uptake in pig striatum relative to control. In kind it is ADME, tissue-based, Sus scrofa. Conditions: in vivo.
The target in data set [9] is T5, 5-hydroxytryptamine receptor 2A (Homo sapiens, UniProt P28223). In words: Binding affinity to human recombinant 5-HT2A assessed as inhibition constant.
T5 sequence (P28223 whole entry): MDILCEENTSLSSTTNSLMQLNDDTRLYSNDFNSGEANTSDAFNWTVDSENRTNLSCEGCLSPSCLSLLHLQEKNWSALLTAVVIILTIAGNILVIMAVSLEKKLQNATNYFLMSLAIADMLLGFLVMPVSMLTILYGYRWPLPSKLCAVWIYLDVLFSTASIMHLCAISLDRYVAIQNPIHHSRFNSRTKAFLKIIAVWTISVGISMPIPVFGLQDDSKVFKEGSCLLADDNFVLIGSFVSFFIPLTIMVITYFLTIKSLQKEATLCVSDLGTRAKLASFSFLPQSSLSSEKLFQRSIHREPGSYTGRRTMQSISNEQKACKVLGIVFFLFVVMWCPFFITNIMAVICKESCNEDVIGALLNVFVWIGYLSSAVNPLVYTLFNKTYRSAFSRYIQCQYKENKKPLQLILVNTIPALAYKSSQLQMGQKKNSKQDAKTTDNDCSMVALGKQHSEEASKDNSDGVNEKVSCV
The target of data set [10] is T6, 5-hydroxytryptamine receptor 6 (Homo sapiens, UniProt P50406). Nature of the data set: Binding affinity to human recombinant 5-HT6 receptor assessed as inhibition constant.
T6 sequence (P50406 whole entry): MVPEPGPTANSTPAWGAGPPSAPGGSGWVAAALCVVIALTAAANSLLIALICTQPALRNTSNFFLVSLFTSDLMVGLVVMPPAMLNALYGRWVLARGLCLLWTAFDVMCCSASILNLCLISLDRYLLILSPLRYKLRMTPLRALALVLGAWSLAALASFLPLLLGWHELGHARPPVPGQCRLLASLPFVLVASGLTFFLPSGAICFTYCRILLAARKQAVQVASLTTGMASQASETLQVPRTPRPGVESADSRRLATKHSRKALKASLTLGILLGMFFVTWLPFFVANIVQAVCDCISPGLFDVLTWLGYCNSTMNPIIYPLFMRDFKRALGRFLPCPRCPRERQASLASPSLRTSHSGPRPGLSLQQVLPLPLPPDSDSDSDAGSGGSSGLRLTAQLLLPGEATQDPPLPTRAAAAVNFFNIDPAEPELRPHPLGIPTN
A short description of data set [11]: Drug uptake in Papio anubis striatum relative to control. The format is ADME, tissue-based.
The nature of data set [12]: Drug uptake in human striatum relative to control. In kind it is ADME, tissue-based.
The nature of data set [13]: Drug uptake in pig brain cortex measured at 10 to 20 mins postinjection. The format is ADME, organism-based, Sus scrofa. The note with it: in vivo, time 10-20 min.
For data set [14], the target named is T4, 5-hydroxytryptamine receptor 2C. In words: Binding affinity to human 5-HT2C assessed as inhibition constant.
Data set [15] can be described thus: Drug uptake in pig brain cortex assessed as non-displaceable binding potential. The note with it: in vivo. The format is ADME, tissue-based, Sus scrofa.
Data set [16] concerns the target T5, 5-hydroxytryptamine receptor 2A. Nature of the data set: Binding affinity to human 5-HT2A assessed as inhibition constant.
The target in data set [17] is T1, 5-hydroxytryptamine receptor 7.
The target in data set [18] is T7, 5-hydroxytryptamine receptor 1F (Homo sapiens, UniProt P30939). Nature of the data set: Binding affinity to human 5-HT1F assessed as inhibition constant incubated for 10 mins by radioligand binding assay.
T7 sequence (P30939 whole entry): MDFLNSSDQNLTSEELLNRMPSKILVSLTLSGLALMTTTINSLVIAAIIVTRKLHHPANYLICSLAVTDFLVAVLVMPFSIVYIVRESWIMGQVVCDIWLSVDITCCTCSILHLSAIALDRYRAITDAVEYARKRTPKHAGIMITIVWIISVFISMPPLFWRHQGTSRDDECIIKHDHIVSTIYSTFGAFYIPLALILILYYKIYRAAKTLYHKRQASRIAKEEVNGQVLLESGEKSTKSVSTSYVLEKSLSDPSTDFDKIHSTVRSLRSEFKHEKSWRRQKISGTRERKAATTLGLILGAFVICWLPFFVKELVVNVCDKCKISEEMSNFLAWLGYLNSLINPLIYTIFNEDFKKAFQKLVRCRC
Data set [19] has as its target T8, 5-hydroxytryptamine receptor 1D (Homo sapiens, UniProt P28221). In words: Binding affinity to 5-HT1D (unknown origin) assessed as inhibition constant.
The target in data set [20] is 5-hydroxytryptamine receptor 1B (Homo sapiens, UniProt P28222).
Data set [21] has as its target 5-hydroxytryptamine receptor 5A (Homo sapiens, UniProt P47898). In words: Binding affinity to 5-HT5A receptor (unknown origin) assessed as inhibition constant.
Data set [22] has as its target T3, 5-hydroxytryptamine receptor 1A.
Data set [23] concerns the target T2, 5-hydroxytryptamine receptor 2B.
In data set [24] the target is T4, 5-hydroxytryptamine receptor 2C.
A short description of data set [25]: Drug uptake in Cynomolgus monkey striatum at 4 mCi, iv measured upto 90 mins by PET imaging. Conditions: in vivo, 1.5 h. In kind it is ADME, organism-based, Macaca fascicularis.
The nature of data set [26]: Drug uptake in cat striatum at 2.5 mCi, iv measured upto 90 mins by PET imaging. The format is ADME, organism-based, Felis catus. The note with it: in vivo, 1.5 h.
Data set [27] has as its target T7, 5-hydroxytryptamine receptor 1F. In words: Binding affinity to human 5-HT1F assessed as inhibition constant.
In data set [28] the target is T6, 5-hydroxytryptamine receptor 6. Nature of the data set: Binding affinity to 5-HT6 receptor (unknown origin) assessed as inhibition constant.
Data set [29] concerns the target Serotonin 3 (5-HT3) receptor. In words: Binding affinity to 5-HT3 receptor (unknown origin) assessed as inhibition constant. The format is protein-complex assay, Homo sapiens.
The target in data set [30] is T1, 5-hydroxytryptamine receptor 7. Nature of the data set: Binding affinity to human 5-HT7 receptor transfected by pcDNA3.1(+) vector in HEK293 cells assessed as inhibition constant by Cheng-Prusoff equation analysis. In kind it is cell-based.
The target in data set [31] is T8, 5-hydroxytryptamine receptor 1D. In words: Binding affinity to human 5-HT1D expressed in CHO cells assessed as inhibition constant incubated for 1 hr by Cheng-Prusoff equation analysis. The format is cell-based.
Data set [32] has as its target 5-hydroxytryptamine receptor 7 (Rattus norvegicus, UniProt P32305). Nature of the data set: Binding affinity to rat brain 5-HT7 receptor assessed as inhibition constant incubated for 60 mins. In kind it is tissue-based.
The target of data set [33] is T4, 5-hydroxytryptamine receptor 2C. In words: Binding affinity to 5-HT2C (unknown origin) assessed as inhibition constant by liquid scintillation counter analysis.
In data set [34] the target is 5-hydroxytryptamine receptor 2A (Rattus norvegicus, UniProt P14842). In words: Binding affinity to rat 5-HT2A assessed as inhibition constant by liquid scintillation counter analysis.
Chain of 5-hydroxytryptamine receptor 2A (Rattus norvegicus, UniProt P14842) (P14842 whole entry): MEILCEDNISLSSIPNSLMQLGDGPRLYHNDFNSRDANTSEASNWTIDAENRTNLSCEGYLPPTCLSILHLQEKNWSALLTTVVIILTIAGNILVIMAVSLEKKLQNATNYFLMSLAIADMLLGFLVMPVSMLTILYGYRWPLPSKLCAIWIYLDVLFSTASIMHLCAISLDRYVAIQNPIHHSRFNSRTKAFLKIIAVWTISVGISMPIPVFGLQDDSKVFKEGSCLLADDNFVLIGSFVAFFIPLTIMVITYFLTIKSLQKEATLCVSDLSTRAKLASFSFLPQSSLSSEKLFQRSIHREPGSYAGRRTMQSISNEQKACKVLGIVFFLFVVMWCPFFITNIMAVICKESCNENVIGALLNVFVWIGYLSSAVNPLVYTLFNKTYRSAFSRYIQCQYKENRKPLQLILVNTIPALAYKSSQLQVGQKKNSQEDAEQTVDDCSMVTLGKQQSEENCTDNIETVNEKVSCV
The target in data set [35] is T2, 5-hydroxytryptamine receptor 2B. Nature of the data set: Binding affinity to 5-HT2B (unknown origin) assessed as inhibition constant by liquid scintillation counter analysis.
In data set [36] the target is 5-hydroxytryptamine receptor 4 (Homo sapiens, UniProt Q13639). In words: Binding affinity to 5-HT4 receptor (unknown origin) assessed as inhibition constant.
Chain of 5-hydroxytryptamine receptor 4 (Q13639 whole entry): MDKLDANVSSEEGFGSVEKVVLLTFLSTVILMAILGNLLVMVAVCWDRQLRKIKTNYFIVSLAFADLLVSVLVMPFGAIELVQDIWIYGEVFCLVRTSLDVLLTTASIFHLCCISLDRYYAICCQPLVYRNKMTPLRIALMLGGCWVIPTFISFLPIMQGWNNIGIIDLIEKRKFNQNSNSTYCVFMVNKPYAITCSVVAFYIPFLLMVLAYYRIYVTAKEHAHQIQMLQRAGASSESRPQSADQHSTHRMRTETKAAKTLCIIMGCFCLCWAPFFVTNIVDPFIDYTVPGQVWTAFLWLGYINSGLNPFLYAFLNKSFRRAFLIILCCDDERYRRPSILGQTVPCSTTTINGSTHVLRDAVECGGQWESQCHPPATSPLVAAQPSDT
The nature of data set [37]: Drug uptake in human brain. The format is ADME, tissue-based.

These results are taken from ChEMBL document CHEMBL5108009, “Positron Emission Tomography (PET) Imaging Tracers for Serotonin Receptors” (J Med Chem, 2022).

Broadly, the Ki is a dissociation constant, usually derived from enzyme kinetics or from competition with a known ligand.

T1 sequence (P34969 whole entry): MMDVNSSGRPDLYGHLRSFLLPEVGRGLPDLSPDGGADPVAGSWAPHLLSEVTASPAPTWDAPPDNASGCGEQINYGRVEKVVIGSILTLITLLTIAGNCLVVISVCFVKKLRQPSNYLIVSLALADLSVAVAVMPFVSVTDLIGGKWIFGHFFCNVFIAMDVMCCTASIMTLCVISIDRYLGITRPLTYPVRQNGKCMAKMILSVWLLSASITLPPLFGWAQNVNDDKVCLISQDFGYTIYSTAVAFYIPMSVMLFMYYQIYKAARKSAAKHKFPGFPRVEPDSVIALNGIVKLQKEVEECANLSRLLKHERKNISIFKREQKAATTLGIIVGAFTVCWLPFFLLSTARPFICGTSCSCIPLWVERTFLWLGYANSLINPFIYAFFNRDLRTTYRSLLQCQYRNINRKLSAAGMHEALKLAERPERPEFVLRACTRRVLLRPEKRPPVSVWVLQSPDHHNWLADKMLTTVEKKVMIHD
T8 sequence (P28221 whole entry): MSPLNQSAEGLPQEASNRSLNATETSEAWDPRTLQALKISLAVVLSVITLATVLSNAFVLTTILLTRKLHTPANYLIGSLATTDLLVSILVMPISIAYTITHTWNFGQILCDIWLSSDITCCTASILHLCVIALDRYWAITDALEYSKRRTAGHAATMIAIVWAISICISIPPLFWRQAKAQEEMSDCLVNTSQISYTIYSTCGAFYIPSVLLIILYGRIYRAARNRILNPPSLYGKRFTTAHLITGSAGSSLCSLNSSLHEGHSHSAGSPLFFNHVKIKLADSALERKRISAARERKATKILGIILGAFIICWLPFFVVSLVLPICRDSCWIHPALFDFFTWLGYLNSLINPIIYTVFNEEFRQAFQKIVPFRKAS
T2 sequence (P41595 whole entry): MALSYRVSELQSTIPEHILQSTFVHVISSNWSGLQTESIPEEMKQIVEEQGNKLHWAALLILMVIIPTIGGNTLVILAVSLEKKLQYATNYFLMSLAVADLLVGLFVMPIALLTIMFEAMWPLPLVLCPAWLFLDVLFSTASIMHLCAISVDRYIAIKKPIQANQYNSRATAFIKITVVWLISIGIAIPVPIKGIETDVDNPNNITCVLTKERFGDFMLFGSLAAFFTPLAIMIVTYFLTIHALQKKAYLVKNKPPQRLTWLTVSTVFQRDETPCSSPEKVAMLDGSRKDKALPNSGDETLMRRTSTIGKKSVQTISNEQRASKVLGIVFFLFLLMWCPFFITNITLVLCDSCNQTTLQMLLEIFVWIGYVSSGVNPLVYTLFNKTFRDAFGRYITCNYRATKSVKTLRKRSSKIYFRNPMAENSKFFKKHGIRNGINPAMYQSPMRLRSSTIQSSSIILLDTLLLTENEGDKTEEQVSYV
Chain of 5-hydroxytryptamine receptor 5A (P47898 whole entry): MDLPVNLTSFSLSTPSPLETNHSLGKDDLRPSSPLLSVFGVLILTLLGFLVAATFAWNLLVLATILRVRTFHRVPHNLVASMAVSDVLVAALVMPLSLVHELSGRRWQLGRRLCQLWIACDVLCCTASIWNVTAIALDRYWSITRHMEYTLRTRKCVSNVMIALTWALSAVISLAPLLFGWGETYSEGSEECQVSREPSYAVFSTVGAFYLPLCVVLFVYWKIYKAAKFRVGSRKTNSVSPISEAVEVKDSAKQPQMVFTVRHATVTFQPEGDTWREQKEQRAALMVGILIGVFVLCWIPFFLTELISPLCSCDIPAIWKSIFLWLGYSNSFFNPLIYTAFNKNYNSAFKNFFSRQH
Chain of Sigma intracellular receptor 2 (Q5BJF2 whole entry): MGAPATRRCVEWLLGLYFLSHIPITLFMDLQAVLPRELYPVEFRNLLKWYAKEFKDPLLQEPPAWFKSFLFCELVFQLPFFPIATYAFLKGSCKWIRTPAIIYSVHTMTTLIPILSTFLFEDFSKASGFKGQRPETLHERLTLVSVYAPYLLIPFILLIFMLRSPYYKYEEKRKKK
Chain of 5-hydroxytryptamine receptor 7 (Rattus norvegicus, UniProt P32305) (P32305 whole entry): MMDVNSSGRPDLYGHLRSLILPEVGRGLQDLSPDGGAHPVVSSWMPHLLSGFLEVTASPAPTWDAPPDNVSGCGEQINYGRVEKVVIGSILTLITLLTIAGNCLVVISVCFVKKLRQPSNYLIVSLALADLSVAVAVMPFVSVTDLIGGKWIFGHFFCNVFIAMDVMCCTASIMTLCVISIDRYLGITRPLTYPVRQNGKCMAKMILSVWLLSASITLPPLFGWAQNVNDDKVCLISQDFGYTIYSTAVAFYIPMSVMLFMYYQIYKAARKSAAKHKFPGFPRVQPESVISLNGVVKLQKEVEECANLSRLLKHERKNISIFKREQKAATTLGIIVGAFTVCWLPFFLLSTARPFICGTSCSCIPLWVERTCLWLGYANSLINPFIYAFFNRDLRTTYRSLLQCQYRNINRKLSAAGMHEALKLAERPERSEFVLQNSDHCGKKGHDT
Chain of Sigma non-opioid intracellular receptor 1 (Q99720 whole entry): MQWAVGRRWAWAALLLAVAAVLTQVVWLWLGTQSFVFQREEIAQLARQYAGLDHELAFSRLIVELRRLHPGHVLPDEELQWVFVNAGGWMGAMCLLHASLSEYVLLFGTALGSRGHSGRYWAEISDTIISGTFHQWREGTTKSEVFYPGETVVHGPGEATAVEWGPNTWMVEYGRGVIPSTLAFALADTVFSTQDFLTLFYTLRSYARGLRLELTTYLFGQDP

With `COc1cccc(S(=O)(=O)N2CCC[C@@H]2CCN2CCC(C)CC2)c1`, the Ki was 18 nM in [1], 1.6 nM in [2] and 9.2 nM in data set [3].
As for `[11CH3]N1CCc2nc3ccnn3c(N3CCC3)c2CC1`, the Ki in [4] is more than 1000 nM; in data set [5] it was 161 nM; in data set [6], more than 1000 nM; in data set [7] it was 75 nM.
As for `[11CH3]N1CCN(c2cccc3cc(S(=O)(=O)c4cccc(F)c4)cnc23)CC1`, the figures for the Drug uptake in data set [8], in [11] and in [12] were 3.5 %Idose/L, 10.5 %Idose/L and 11.5 %Idose/L, respectively. Moreover, the Ki in data set [9] worked out at 0.16 nM; in data set [10] it was 0.79 nM.
For the molecule `COc1cc(CCNCc2ccccc2O[11CH3])c(OC)cc1Br`, the SUV in [13] is 0.8. Moreover, the Ki stood at 1.7 nM in [14] and 0.5 nM in data set [16]. Moreover, the Drug uptake in [15] is on record as 0.62.
Turning to `CN1CCC(C(=O)c2cccc(NC(=O)c3c(F)cc(F)cc3F)n2)CC1`, the Ki in data set [17] is more than 590 nM; in data set [18], 2.21 nM; in [19], more than 592 nM; in data set [20] it was more than 591 nM; in data set [21] it was more than 595 nM; in data set [22], more than 590 nM. Further, the results for the Ki in data set [23] and in [24] were more than 593 nM and more than 594 nM, respectively.
`CC(c1cnc2c(N3CCN(C)CC3)cccc2c1)S(=O)(=O)c1ccccc1[18F]` (centres undefined): the SUVmax in data set [25] is given as 2.5; in [26], 4.5.
Consider `CN(C)[C@@H]1CCc2[nH]c3ccc(NC(=O)c4ccc(F)cc4)cc3c2C1`, for which the Ki in data set [17] was more than 500 nM; in data set [27], 6 nM; in [19], more than 500 nM; in data set [21] it was more than 500 nM; in data set [22], more than 500 nM; in [23], more than 500 nM. The same molecule came in with a Ki in data set [24] of more than 500 nM.
As for `CN(C)CCOc1cccc2c1ccn2S(=O)(=O)c1ccc([18F])cc1`, the Ki in data set [28] was 4 nM.
As for `c1ccc(CN2CCN(c3nc4ccsc4n4cccc34)CC2)cc1`, in [29], the Ki came out at 1 nM.
Consider `COc1ccc(-c2c([N+](=O)[O-])ccn2C)cc1`, for which the Ki in data set [30] worked out at 16.8 nM.
In the case of `CNC(=O)c1ccc2c(c1)CCO[C@H]2CCN1CCN(c2ccc(C(N)=O)cc2)CC1`, the Ki is 6 nM in data set [31] and more than 18000 nM in data set [23].
With `CC1CCN(CC[C@H]2CCCN2S(=O)(=O)c2cccc(OCC[18F])c2)CC1`, the Ki in [32] came out at 0.75 nM.
In the case of `COc1cc(CCNCc2ccccc2OC)c(OC)cc1I`, the inhibitory constant (Ki) came to 7 nM in data set [33], 2.2 nM in data set [34] and 2.3 nM in [35].
As to `[11CH3]N1CCC(COC(=O)c2cc(Cl)c(N)c3c2OCCO3)CC1`, the Ki in data set [36] worked out at 0.3 nM. Besides, in data set [37], the SUVmax is on record as 28 kBq/cm3.
